Experimental data: patent US10349662B2, “Insecticidal compositions and methods of using the same” (priority 2011, dated 2019)
Converted amounts (≈) assume the structure as drawn. “And” between values parts separate entries of the source, which are not always exact repeats. Identical values can stand only once. Like-named read-outs stand apart in the source and are kept apart here.

How the values were obtained:
[1] = cited from earlier work
Aedes aegypti mosquitoes = experiment: Topical bioassay on adult female Aedes aegypti mosquitoes (knockdown 1 h, mortality 24 h; Colby calculation for combinations); type: in vivo; conditions: for mortality at 3 %: Aedes aegypti, topical, 24 h
Source text: Components of a composition can have a synergistic or additive effect on insecticidal activity. Components have an additive effect when the effect of the combination is equal to the sum of the effects of each individual component. In contrast, components have a synergistic effect when the effect of the combination exceeds the sum of the effects of the components when applied individually. The effect (E) of a combination of two compounds may be calculated using the Colby formula (1) (S. R. Colby, “Calculating Synergistic and Antagonistic Responses of Herbicide Combinations”, Weeds 1967, 15, 20-22):
If the actual insecticidal kill rate is the calculated value (E), then the action of the combination is additive. If the actual insecticidal kill rate exceeds the calculated value (E), then the action of the combination is super-additive, that is, a synergistic effect is present. If the insecticidal kill rate is lower than the calculated value (E), then the action of the combination is considered antagonistic.
Adult female Aedes aegypti mosquitoes were segregated in 18″×18″ screen cages based on date of eclosion, therefore the exact age of the mosquitoes were known for bioassays.
Ten female mosquitoes, aged four to six days after eclosion, were aspirated out of their respective cage and into a small glass jar. The mosquitoes were then anesthetized with CO2 gas for 30 seconds. After the adults were anesthetized, they were quickly placed on a plastic platform for treatment application. Treatments were serially diluted (using a BrandTech Scientific Transferpette S pipette (100-1000 μL), labeled centrifuge tubes, and a vortex mixer) from stocks of insecticides using reagent grade acetone as the diluent to concentrations as indicated for each treatment solution. A treatment solution may contain additional ingredients as indicated for each study.
Using a Hamilton PB00-1 Repeating Dispenser with a Hamilton 25 Microliter Syringe, 0.5 μL of each treatment solution was applied to the thorax of each mosquito. Immediately following the application of the treatment, the mosquitoes were gently transferred into a clean paper cup and covered with screen. The mesh screen prevented the mosquitoes from escaping and allowed the specimens to be viewed for ratings. A cotton ball soaked with 10% sucrose solution was inserted into a side hole of each cup for hydration and nourishment. Each treatment variable in the study was replicated three times using separate cups for each replication.
The untreated controls treatments were anesthetized for 30 seconds and gently transferred to the paper cups. The acetone treated control was treated exactly as described above except that the solution applied to each mosquito was undiluted acetone.
The condition of the mosquitoes in each cup was recorded at one hour and 24 hours after initial treatment. The condition classifications used were (1) alive and flying, (2) alive and unable to fly, or (3) dead. The percent mortality for each treatment was calculated by summing the mortalities of each replicate then calculating the percent dead from the total number of mosquitoes.
Where indicated, the mortality data were subjected to probit analysis using the Statistical Analysis System Version 9.1 program PROC PROBIT (SAS Institute (2003) PROC user's manual, version 9.1. SAS Institute, Cary, N.C.).

[2] = read-out: % MORTALITY AFTER 24 HRS, active ingredient alone, 3%, adult, virgin, female Aedes aegypti
[3] = active ingredient alone, 3%, adult, virgin, female Aedes aegypti

## C=C(C)C1CC=C(CO)CC1 (racemic) [Pennyl Alcohol (racemic)]
[1]
  Vapor Pressure (@ 25° C.): 0.00478 mmHg
  Solubility (in water @ 25° C.): 471 µg/mL (≈ 3090 µM)

## CC(C)=CCC[C@]1(C)[C@H]2CC=C(C)[C@@H]1C2 (relative stereo) [Bergamotene Trans Alpha]
[1]
  Vapor Pressure (@ 25° C.): 0.028 mmHg
  Solubility (in water @ 25° C.): 0.030 µg/mL (≈ 0.147 µM)

## CC1=CCCCC1 [1-Methyl-1-cyclohexene, 1-methyl-1-cyclohexene]
Aedes aegypti mosquitoes; [2]
  mortality at 3 %: 40%

## CC(C)(C)C1=CCCCC1 [1-tert-Butyl . . .]
Aedes aegypti mosquitoes; [3]
  % MORTALITY AFTER 24 HRS: 30%

## CC1=CC(=O)CC(C)C1 (stereo not shown) [3,5-Dimethyl . . .]
Aedes aegypti mosquitoes; [3]
  % MORTALITY AFTER 24 HRS: 63%

## OCC1CC=CCC1 (stereo not shown) [3-Cyclohexene-1-methanol, 3-cyclohexene-1-methanol]
Aedes aegypti mosquitoes; read-out: % MORTALITY AFTER 24 HRS, single active, 3%
  mortality at 3 %: 57%

## CC1=CC(=O)CC(C)C1 (stereo not shown) [3.5-Dimethyl . . .]
Aedes aegypti mosquitoes; [3]
  % MORTALITY AFTER 24 HRS: 30%

## CC1CC=CCC1 (stereo not shown) [4-Methylcyclohexene]
Aedes aegypti mosquitoes; [2]
  mortality at 3 %: 0%

## CC1(C)C2CC=C(C=O)C1C2 [(1R)-(−)-Myrtenal]
Aedes aegypti mosquitoes; 2%
  % MORTALITY AFTER 24 HRS: 10%

## C=C(C)[C@@H]1CC=C(C)C(=O)C1 [(R)-(−)-Carvone]
Aedes aegypti mosquitoes; 3%
  % MORTALITY AFTER 24 HRS: 7%
Aedes aegypti mosquitoes; single active, 3%
  % MORTALITY AFTER 24 HRS: 13% and 10%

## C=C(C)[C@H]1CC=C(C)C(=O)C1 [(S)-(+)-Carvone]
Aedes aegypti mosquitoes; 3%
  % MORTALITY AFTER 24 HRS: 13%
Aedes aegypti mosquitoes; single active, 3%
  % MORTALITY AFTER 24 HRS: 7% and 17%

## C=C(C)[C@H]1CC=C(C)C(=O)C1 [(S)-(−)-Carvone]
Aedes aegypti mosquitoes; 3%
  % MORTALITY AFTER 24 HRS: 20%

## C=C(C)[C@@H]1CC=C(C=O)CC1 [(S)-(−)-Perillaldehyde]
Aedes aegypti mosquitoes; 1%
  1 hour knockdown: 3%
  % MORTALITY AFTER 24 HRS: 7%
Aedes aegypti mosquitoes; 2%
  % MORTALITY AFTER 24 HRS: 30%
Aedes aegypti mosquitoes; 5%
  1 hour knockdown: 93%
  % MORTALITY AFTER 24 HRS: 93%
Aedes aegypti mosquitoes; 10%
  1 hour knockdown: 100%
  % MORTALITY AFTER 24 HRS: 100%
Aedes aegypti mosquitoes; 20%
  1 hour knockdown: 97%
  % MORTALITY AFTER 24 HRS: 100%
